{
  "source": "patent US6638981B2",
  "about": "“Topical compositions and methods for treating pain” (EpiCept Corporation, priority 2001, dated 2003)",
  "test": "Chemical and physical stability studies under ICH storage conditions (extraction, HPLC, appearance)",
  "assay_type": "physicochemical",
  "details": "in Composition A; for calculated initial percentage of actives: before storage, HPLC; for calc. percentage of actives after storage for one month, 25° C. / calc. percentage of actives after storage for two months, 25° C.: 25° C./60% RH; for calc. percentage of actives after storage for one month, 30° C. / calc. percentage of actives after storage for two months, 30° C.: 30° C./60% RH; for calc. percentage of actives after storage for one month, 40° C. / calc. percentage of actives after storage for two months, 40° C.: 40° C./75% RH",
  "note": "Counter-ions that a name gives are not always drawn.",
  "data": [
    {"smiles": "CN(C)CCC=C1c2ccccc2CCc2ccccc21", "note": "[Amitriptyline Hydrochloride, Amitriptyline hydrochloride]", "values": [
      {"measurement": "calculated initial percentage of actives", "result": 102.5, "unit": "%"},
      {"measurement": "calc. percentage of actives after storage for one month, 25° C.", "result": 103, "unit": "%"},
      {"measurement": "calc. percentage of actives after storage for two months, 25° C.", "result": 101, "unit": "%"},
      {"measurement": "calc. percentage of actives after storage for one month, 30° C.", "result": 102, "unit": "%"},
      {"measurement": "calc. percentage of actives after storage for two months, 30° C.", "result": 102, "unit": "%"},
      {"measurement": "calc. percentage of actives after storage for one month, 40° C.", "result": 103, "unit": "%"},
      {"measurement": "calc. percentage of actives after storage for two months, 40° C.", "result": 102, "unit": "%"}
    ]},
    {"smiles": "CNC1(c2ccccc2Cl)CCCCC1=O", "note": "(stereo not shown) [Ketamine Hydrochloride, Ketamine hydrochloride]", "values": [
      {"measurement": "calculated initial percentage of actives", "result": 100.4, "unit": "%"},
      {"measurement": "calc. percentage of actives after storage for one month, 25° C.", "result": 103, "unit": "%"},
      {"measurement": "calc. percentage of actives after storage for two months, 25° C.", "result": 100, "unit": "%"},
      {"measurement": "calc. percentage of actives after storage for one month, 30° C.", "result": 102, "unit": "%"},
      {"measurement": "calc. percentage of actives after storage for two months, 30° C.", "result": 100, "unit": "%"},
      {"measurement": "calc. percentage of actives after storage for one month, 40° C.", "result": 103, "unit": "%"},
      {"measurement": "calc. percentage of actives after storage for two months, 40° C.", "result": 102, "unit": "%"}
    ]},
    {"smiles": "COC(=O)c1ccc(O)cc1", "note": "[Methylparaben]", "values": [
      {"measurement": "calculated initial percentage of actives", "result": 104.4, "unit": "%"},
      {"measurement": "calc. percentage of actives after storage for one month, 25° C.", "result": 103, "unit": "%"},
      {"measurement": "calc. percentage of actives after storage for two months, 25° C.", "result": 101, "unit": "%"},
      {"measurement": "calc. percentage of actives after storage for one month, 30° C.", "result": 102, "unit": "%"},
      {"measurement": "calc. percentage of actives after storage for two months, 30° C.", "result": 102, "unit": "%"},
      {"measurement": "calc. percentage of actives after storage for one month, 40° C.", "result": 102, "unit": "%"},
      {"measurement": "calc. percentage of actives after storage for two months, 40° C.", "result": 102, "unit": "%"}
    ]},
    {"smiles": "CCCOC(=O)c1ccc(O)cc1", "note": "[Propylparaben]", "values": [
      {"measurement": "calculated initial percentage of actives", "result": 101.8, "unit": "%"},
      {"measurement": "calc. percentage of actives after storage for one month, 25° C.", "result": 102, "unit": "%"},
      {"measurement": "calc. percentage of actives after storage for two months, 25° C.", "result": 102, "unit": "%"},
      {"measurement": "calc. percentage of actives after storage for one month, 30° C.", "result": 102, "unit": "%"},
      {"measurement": "calc. percentage of actives after storage for two months, 30° C.", "result": 103, "unit": "%"},
      {"measurement": "calc. percentage of actives after storage for one month, 40° C.", "result": 102, "unit": "%"},
      {"measurement": "calc. percentage of actives after storage for two months, 40° C.", "result": 103, "unit": "%"}
    ]}
  ]
}
